ChEMBL document CHEMBL1201862, “PubChem BioAssay data set” (2004)
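Five compound concentrations were applied to cells in 96-well plates for 48 hours; endpoints were derived by simple linear interpolation of the resulting dose-response curve. At the GI50, growth is halved.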 The source made the active and inactive calls. Rule as the data show it: active = GI50 up to about 1.1 µM and inactive = higher.

Columns and labels:
Experiment in all cases: NCI tumour cell line growth inhibition, 48 h
RXF 393 = system: RXF 393
LOX IMVI = system: LOX IMVI
CAKI-1 = system: CAKI-1
UACC-257 = system: UACC-257
SK-MEL-5 = system: SK-MEL-5
NCI-H460 = system: NCI-H460
NCI/ADR-RES = system: NCI/ADR-RES
DU-145 = system: DU-145
NCI-H226 = system: NCI-H226
EKVX = system: EKVX
BT-549 = system: BT-549
IGROV-1 = system: IGROV-1
MDA-N = system: MDA-N
HOP-62 = system: HOP-62
OVCAR-8 = system: OVCAR-8
MDA-MB-435 = system: MDA-MB-435
COLO 205 = system: COLO 205
HCC 2998 = system: HCC 2998
SF-295 = system: SF-295
HL-60 = system: HL-60

| Structure (SMILES) | GI50 (RXF 393) | GI50 (LOX IMVI) | GI50 (CAKI-1) | GI50 (UACC-257) | GI50 (SK-MEL-5) | GI50 (NCI-H460) | GI50 (NCI/ADR-RES) | GI50 (DU-145) | GI50 (NCI-H226) | GI50 (EKVX) | GI50 (BT-549) | GI50 (IGROV-1) | GI50 (MDA-N) | GI50 (HOP-62) | GI50 (OVCAR-8) | GI50 (MDA-MB-435) | GI50 (COLO 205) | GI50 (HCC 2998) | GI50 (SF-295) | GI50 (HL-60) |
| --- | --- | --- | --- | --- | --- | --- | --- | --- | --- | --- | --- | --- | --- | --- | --- | --- | --- | --- | --- | --- |
| COc1ccc(CN(CCc2c[nH]c3ccccc23)Cc2ccc(OC)cc2)cc1 | 4.69 µM (inactive) | 3.15 µM (inactive) | 3.94 µM (inactive) | 3.8 µM (inactive) | 2.77 µM (inactive) | 2.15 µM (inactive) | 3.2 µM (inactive) | 4.65 µM (inactive) | 1.37 µM (inactive) | 5.26 µM (inactive) | 5.71 µM (inactive) | 1.8 µM (inactive) | 1.92 µM (inactive) | 3.01 µM (inactive) | 3.95 µM (inactive) | 2.76 µM (inactive) | 2.04 µM (inactive) | 3.34 µM (inactive) | 1.15 µM (inactive) |  |
| CCOC(=O)/C=C/[C@H](O[Si](CC)(CC)CC)C(C)(C)C | 47.1 µM (inactive) | 21.5 µM (inactive) | > 100 µM (inactive) | 31 µM (inactive) | 45.3 µM (inactive) | > 100 µM (inactive) | > 100 µM (inactive) | > 100 µM (inactive) | > 100 µM (inactive) | 40.5 µM (inactive) | > 100 µM (inactive) | > 100 µM (inactive) | 78.2 µM (inactive) | 83.6 µM (inactive) | > 100 µM (inactive) | 59 µM (inactive) | 80.5 µM (inactive) | 57.3 µM (inactive) | 42.4 µM (inactive) |  |
| COC(=O)c1c(O)c(C#N)c2[nH]c3ccccc3n2c1=O | > 100 µM (inactive) |  | > 100 µM (inactive) | > 100 µM (inactive) | > 100 µM (inactive) | > 100 µM (inactive) | > 100 µM (inactive) | > 100 µM (inactive) | > 100 µM (inactive) | > 100 µM (inactive) | > 100 µM (inactive) | > 100 µM (inactive) | > 100 µM (inactive) | > 100 µM (inactive) | > 100 µM (inactive) | > 100 µM (inactive) | > 100 µM (inactive) | > 100 µM (inactive) | > 100 µM (inactive) | > 100 µM (inactive) |
| COc1cc(NC(C)=O)ccc1C(=O)NN1C(=O)/C(=C/c2ccco2)N=C1c1ccccc1 | > 50 µM (inactive) | 34.2 µM (inactive) | > 50 µM (inactive) |  | 16 µM (inactive) |  | > 50 µM (inactive) | > 50 µM (inactive) |  | > 50 µM (inactive) | > 50 µM (inactive) | > 50 µM (inactive) | 14.9 µM (inactive) | 21.4 µM (inactive) | > 50 µM (inactive) | 25 µM (inactive) | > 50 µM (inactive) |  | > 50 µM (inactive) | 13.6 µM (inactive) |
| Cc1ccc(S(=O)(=O)N2CCC(=O)c3cc(Br)ccc32)cc1 | 12.5 µM (inactive) | 6.52 µM (inactive) | 11.8 µM (inactive) | 6.95 µM (inactive) | 7.05 µM (inactive) | 19.3 µM (inactive) | 6.56 µM (inactive) | 8.67 µM (inactive) | 37.7 µM (inactive) | 23.9 µM (inactive) | 13.9 µM (inactive) | 6.1 µM (inactive) | 3.01 µM (inactive) | 7.16 µM (inactive) | 14.4 µM (inactive) | 1.79 µM (inactive) | 16.9 µM (inactive) | 24 µM (inactive) | 10.1 µM (inactive) |  |
| CC(=O)OC[C@@H](OC(C)=O)[C@@H](OC(C)=O)[C@H]1OC[C@@H]2C[C@H]([C@H]1OC(C)=O)N(Cc1ccccc1)O2 | > 100 µM (inactive) | > 100 µM (inactive) | > 100 µM (inactive) | > 100 µM (inactive) | > 100 µM (inactive) | > 100 µM (inactive) | > 100 µM (inactive) | > 100 µM (inactive) | > 100 µM (inactive) | > 100 µM (inactive) | > 100 µM (inactive) | > 100 µM (inactive) | > 100 µM (inactive) | > 100 µM (inactive) |  | > 100 µM (inactive) | > 100 µM (inactive) | > 100 µM (inactive) | > 100 µM (inactive) | > 100 µM (inactive) |
| C/C(=N\NC(=S)NNC(=S)N(C)c1ccccc1)c1ccccn1 | 4.19 µM (inactive) |  | 0.977 µM (active) | 1.31 µM (inactive) |  | 0.681 µM (active) | 2.66 µM (inactive) | 1.02 µM (active) | 1.41 µM (inactive) | 0.805 µM (active) | 3.14 µM (inactive) | 0.764 µM (active) | 4.06 µM (inactive) | 0.885 µM (active) | 0.538 µM (active) | 3.52 µM (inactive) | 0.673 µM (active) | 1.32 µM (inactive) | 2.94 µM (inactive) | 0.343 µM (active) |
| CC(C)C1CNC(=O)C2(/C=N/C(C(C)C)CNC(=O)C3(/C=N/1)CCCO3)CCCO2 (centres undefined) | > 10 µM (inactive) |  | > 10 µM (inactive) | > 10 µM (inactive) | > 10 µM (inactive) |  | > 10 µM (inactive) | > 10 µM (inactive) |  | > 10 µM (inactive) | > 10 µM (inactive) | > 10 µM (inactive) | > 10 µM (inactive) | > 10 µM (inactive) | > 10 µM (inactive) | > 10 µM (inactive) | > 10 µM (inactive) | > 10 µM (inactive) | > 10 µM (inactive) | > 10 µM (inactive) |
| COc1ccc(N2C(=O)/C(=C/c3ccc(N(CCC#N)CCC#N)cc3)N=C2c2ccccc2)cc1 | > 100 µM (inactive) | > 100 µM (inactive) | 6.19 µM (inactive) | > 100 µM (inactive) | > 100 µM (inactive) | > 100 µM (inactive) | > 100 µM (inactive) | > 100 µM (inactive) | > 100 µM (inactive) | > 100 µM (inactive) | > 100 µM (inactive) | > 100 µM (inactive) | > 100 µM (inactive) | > 100 µM (inactive) | > 100 µM (inactive) | > 100 µM (inactive) | > 100 µM (inactive) |  | > 100 µM (inactive) | > 100 µM (inactive) |
| CN1C(=O)C23CCCC2CC1(c1ccccc1)S3 (centres undefined) | > 100 µM (inactive) | > 100 µM (inactive) | > 100 µM (inactive) | 23 µM (inactive) | > 100 µM (inactive) |  | 64.9 µM (inactive) | > 100 µM (inactive) | > 100 µM (inactive) | > 100 µM (inactive) | 95.5 µM (inactive) | > 100 µM (inactive) | > 100 µM (inactive) | > 100 µM (inactive) | > 100 µM (inactive) | > 100 µM (inactive) | > 100 µM (inactive) |  | > 100 µM (inactive) | 60.7 µM (inactive) |
| O=c1[nH]c2ccc(C(F)(F)F)cc2nc1-c1ccccc1 | > 100 µM (inactive) | > 100 µM (inactive) | > 100 µM (inactive) | > 100 µM (inactive) | > 100 µM (inactive) | > 100 µM (inactive) | > 100 µM (inactive) | > 100 µM (inactive) |  | > 100 µM (inactive) | > 100 µM (inactive) | > 100 µM (inactive) | > 100 µM (inactive) | > 100 µM (inactive) | 52.4 µM (inactive) | > 100 µM (inactive) | > 100 µM (inactive) | > 100 µM (inactive) | > 100 µM (inactive) | > 100 µM (inactive) |
| CC(NC(NC(C)C12CC3CC(CC(C3)C1)C2)=C(C(Cl)=C(Cl)Cl)[N+](=O)[O-])C12CC3CC(CC(C3)C1)C2 (centres undefined) | 13 µM (inactive) | 9.95 µM (inactive) | 16.9 µM (inactive) | 14.5 µM (inactive) | 13.2 µM (inactive) | 4.36 µM (inactive) | 12 µM (inactive) | 45 µM (inactive) | > 26.2 µM (inactive) | 11.3 µM (inactive) | 24 µM (inactive) | 8.02 µM (inactive) | 22.7 µM (inactive) | 32.7 µM (inactive) | 2.77 µM (inactive) | 27.2 µM (inactive) | 8.51 µM (inactive) | 23.4 µM (inactive) | 24.9 µM (inactive) |  |
| C/C(=N\c1cccc(Cl)c1)c1ccncc1 | > 100 µM (inactive) | > 100 µM (inactive) | > 100 µM (inactive) | > 10 µM (inactive) | > 100 µM (inactive) | > 100 µM (inactive) | > 100 µM (inactive) | > 100 µM (inactive) | > 100 µM (inactive) | > 100 µM (inactive) | > 100 µM (inactive) | > 100 µM (inactive) | > 100 µM (inactive) | > 100 µM (inactive) | > 100 µM (inactive) | > 100 µM (inactive) | > 100 µM (inactive) | > 100 µM (inactive) | > 100 µM (inactive) |  |
| COc1cc2c(cc1OC)-c1cc3ccc(OC)c(OC)c3c[n+]1CC2 [PALMATINE CHLORIDE] | > 100 µM (inactive) |  | > 100 µM (inactive) | 48.5 µM (inactive) | 34.8 µM (inactive) | > 100 µM (inactive) | > 100 µM (inactive) | > 100 µM (inactive) | > 100 µM (inactive) | > 100 µM (inactive) | > 100 µM (inactive) | > 100 µM (inactive) | > 100 µM (inactive) | > 100 µM (inactive) | > 100 µM (inactive) | > 100 µM (inactive) | 24.4 µM (inactive) | > 100 µM (inactive) | > 100 µM (inactive) | > 100 µM (inactive) |
